These results are taken from patent US12616203B2, “Use of 3-isoxazolidinones compounds as selective herbicides” (FMC Corporation, priority 2014, dated 2026).

Data set [1] relates to weeds. The experiment in a line: Ex10 PRE greenhouse. The following applies: 28 DAT, weed and rate in the words. In kind it is in vivo. An excerpt:
Treatments 1-12 of 2,4-DC and aclonifen tank-mix combinations follow same rates listed above. […] Sulfentrazone (Spartan 4F® 39.6%) at 280 g ai/ha, pendimethalin (Prowl 3.3®EC, 37.4%) at 784 g ai/ha, or S-metolachlor (Dual II Magnum® 82.4%) at 1084 g ai/ha were applied as commercial standards. Treatments were replicated 3 times and flats were watered after planting but before the treatment and lightly watered after treatment application. Thereafter flats were watered and fertilized routinely. […] Shepherd's-purse was rated at 21 and 28 DAT only, due to delayed emergence.

The subject of the next data set is Velvetleaf. The data set can be described thus: Ex37 PRE 2,4-DC + atrazine, % control 28 DAT, Colby. The format is in vivo, Abutilon theophrasti. The following applies: PRE. The source says: (§1) S-metolachlor (DUAL II MAGNUM®, 82.4%) at 525 g ai/h plus atrazine at 560 g ai/h was included as a standard for comparison. […] Thereafter flats were watered and fertilized routinely.

The subject of another data set is Common cocklebur. The data set is described as above. The format is in vivo, Xanthium strumarium.
Description: as §1

The next data set deals with weeds; Wheat and Barley. The experiment in a line: Ex14 POST greenhouse. The format is in vivo. To be noted: 28 DAT, rate in the words. The source says: (§2) The study further assessed post crop safety on Wheat and Barley.
(§3) Nonionic surfactant at 0.5% (v/v) was included with commercial standards application. No adjuvant was applied with any other treatments. All plant species were direct seeded into 3″ plastic pots using metro-mix as growth media. At treatment application common lambsquarters was 1.75″, common chickweed was 2″, wild mustard was 2.25″, wild oat was 5.5″, wild buckwheat was 2-5″, Italian ryegrass was 2-3″, wheat was 5.5″, and barley was 4.5″ in height. Plants were watered well before application and not watered 24 h after application. Plants were watered and fertilized routinely after treatment application. Each treatment was replicated four times.

The test system of the next data set is common chickweed. The data set can be described thus: Ex14 POST 2,4-DC + bromoxynil, % control 28 DAT, Colby. In kind it is in vivo, Stellaria media.
Description: as §2, §3

The test system of a further data set is Wild buckwheat. The data set can be described thus: Ex11 PRE 2,4-DC + clomazone, % control 28 DAT, Colby. In kind it is in vivo, Polygonum convolvulus. The source says:
The crop tested was Oilseed rape.
Additional treatments included applications of metazachlor (Butisan®, 43.1%) at 750 g ai/ha, napropamide (Devrinol DF®, 50%) at 1260 g, and dimethachlor (Teridox®, 48%) at 1000 g. […] Treatments were applied just after the planting of tall morningglory, wild mustard, common lambsquarters, Italian ryegrass, wild buckwheat, redroot pigweed, common chickweed, corn poppy, and oilseed rape.
Flats were watered and fertilized routinely after treatment application. Each treatment was replicated three times.

Data set [2] relates to weeds. The experiment in a line: Ex18 PRE greenhouse. In kind it is in vivo. The following applies: weed and rate in the words. The source says: (§4) Additional treatments included application of metazachlor (Butisan®, 43.1%) at 750 g ai/ha, napropamide (Devrinol DF®, 50%) at 1260 g ai/ha, and dimethachlor (Teridox®, 48%) at 1000 g ai/ha. […] Treatments were applied just after the seeding of annual bluegrass, cheat, wild oat, quackgrass, field violet, blackgrass, littleseed canarygrass, silky windgrass, yellow foxtail, and goosegrass. […] Flats were watered and fertilized routinely after treatment application. Each treatment was replicated three times.

Data set [3] concerns weeds; Sugarcane (var. CTC 20). The experiment in a line: Ex17 PRE greenhouse. The following applies: weed and rate in the words. In kind it is in vivo. The procedure:
(§5) In this example a study was conducted to determine weed efficacy and sugarcane injury when 2,4 DC or isoxaflutole are applied either alone or tank-mix as preemergence against the weeds: Ivyleaf morningglory (Ipomoea hederacea, IPOHE), hairy beggartickss (Bidens pilosa, BIDPI), yellow nutsedge (Cyperus esculentus, CYPES), large crabgrass (Digitaria sanguinalis, DIGSA), and redroot pigweed (Amaranthus retroflexus, AMARE). The crop tested in this study was Sugarcane (var. CTC 20).
(§6) To determine weed efficacy and sugarcane selectivity, 2,4 DC (SC 36%) and isoxaflutole (Balance Flexx®, 20%) were applied PRE either alone or as tank-mix partners at rates mentioned below. 2,4 DC was applied at 500, 750, and 1000 g ai/ha while isoxaflutole was applied at 80, 100, and 120 g ai/ha. […] Treatments were applied PRE to sugarcane (var. CTC 20), ivyleaf morningglory, hairy beggarticks, yellow nutsedge, large crabgrass, and redroot pigweed. Weed species were planted in fiber flats (6″×10″) containing Pennington soil. Soil was watered before application and watered lightly after application. Flats were watered and fertilized routinely after treatment application.

For another data set, the system named is Cheat. The experiment in a line: Ex18 PRE 2,4-DC + clomazone, % control 28 DAT, Colby. The format is in vivo, Bromus secalinus.
Description: as §4

The test system of data set [4] is weeds. The data set can be described thus: Ex13 PRE greenhouse. The format is in vivo. The following applies: 28 DAT, weed and rate in the words. An excerpt:
(§7) Pyroxasulfone (KIH-485, 85%) at 74.3 g ai/ha, pendimethalin (Prowl 3.3EC, 37.4%) at 1200 g ai/ha, or a premix of chlorsulfuron plus metsulfuron-methyl (Report Extra, 75%) at 15.8 g ai/ha were applied as commercial standards. […] Treatments were replicated 3 times and flats were watered after planting before the treatment and lightly watered after treatment application. Thereafter flats were watered and fertilized routinely.

A further data set has as its system Common lambsquarters. The experiment in a line: Ex13 PRE 2,4-DC + diflufenican, % control 28 DAT, Colby. The format is in vivo, Chenopodium album.
Description: as §7

For another data set, the system named is Blackgrass. The data set is described as above. In kind it is in vivo, Alopecurus myosuroides.
Description: as §7

A further data set concerns Wild mustard. Described as above. The format is in vivo, Sinapis arvensis.
Description: as §7

In a further data set the test system is weeds; Wheat and canola. The experiment in a line: Ex29 PRE greenhouse. The following applies: 28 DAT. The format is in vivo. An excerpt: The tested weeds include Italian ryegrass (Lolium perenne. multiflorum, LOLMU), wild mustard (Sinapis arvensis, SINAR), annual bluegrass (Poa annua, POAAN), wild oat (Avena fatua, AVEFA), blackgrass (Alopecurus myosuroides, ALOMY), common lambsquarters (Chenopodium album, CHEAL), littleseed canarygrass (Phalaris minor, PHAMI), common chickweed (Stellaria media, STEME), corn poppy (Papaver rhoeas, PAPRH), redroot pigweed (Amaranthus retroflexus, AMARE), silky windgrass (Apera spica-venti, APSEV), wild buckwheat (Polygonum convolvulus, POLCO). The crops teased were Wheat and canola.
Treatments were applied before the emergence of Italian ryegrass, wild oat, wild buckwheat, blackgrass, littleseed canarygrass, common chickweed, common lambsquarters, corn poppy, silky windgrass, redroot pigweed, wild mustard, annual bluegrass, canola, and wheat. […] Flats were watered and fertilized routinely after treatment application.

The subject of a further data set is weeds; Sugarcane (CTC20). The data set can be described thus: Ex23 PRE greenhouse. To be noted: 28 DAT, 85 g ai/ha. As for the experimental part:
(Ipomoea spp). The tested crop in this study was Sugarcane (CTC20).
Sugarcane was direct seeded into 6″ plastic pots using 3-4″ sugarcane setts, oriented bud up, with bud leaf shield removed. 2,4 DC and sulfentrazone were applied alone or combined as tank-mix at each rate mentioned below. […] Treatments were replicated 3 times. […] Thereafter flats were watered and fertilized routinely. […] Visual percent sugarcane injury was recorded at 21 and 28 DAT, using a scale of 0 (no injury, observed as bleaching, stunting or necrosis) to 100 (complete plant death).

A further data set deals with Ivyleaf morningglory. The experiment in a line: Ex17 PRE 2,4 DC + isoxaflutole, % control 28 DAT, Colby. In kind it is in vivo, Ipomoea hederacea. The procedure:
as §5
as §6, with “Weed species were planted in fiber flats (6″×10″) containing Pennington soil.” left out

The subject of data set [5] is weeds; Wheat, barley, and oil seed rape (OSR). The data set can be described thus: Ex19 PRE greenhouse. In kind it is in vivo. The following applies: rate in the words. An excerpt:
In this study, the crops tested included Wheat, barley, and oil seed rape (OSR).
To determine weed efficacy and wheat, barley or OSR selectivity, 2,4 DC (CS 36.7%) and Diflufenican (CS 19.5%) were applied preemergence either alone or as tank-mix partners at the following rates. 2,4 DC was applied at 125, 170, 210 and 250 g ai/ha while Diflufenican was applied at 50, 75, and 100 g ai/ha. Pyroxasulfone (KIH-485, 85%) at 74.3 g ai/ha, pendimethalin (Prowl 3.3EC, 37.4%) at 1200 g ai/ha, or a premix of chlorsulfuron plus metsulfuron-methyl (Report Extra, 75%) at 15.8 g ai/ha were applied as commercial standards.
Herbicides included as standards for comparison were pyroxasulfone, pendimethalin, and a pre mix of chlorsulfuron plus metsulfuron methyl, all applied at labeled rates as indicated above. Treatments were replicated 3 times. […] Thereafter flats were watered and fertilized routinely.

As to `Nc1c([N+](=O)[O-])ccc(Oc2ccccc2)c1Cl` [Aclonifen, aclonifen], the “weed control in words” value in the data set with weeds [1] was “alone at all three rates controlled common lambsquarters, quackgrass, redroot pigweed, littleseed canarygrass, annual bluegrass, blackgrass, and shepherd's purse”.
For the compound `CCNc1nc(Cl)nc(NC(C)C)n1` [Atrazine], the entries for the “Y (% control, atrazine alone)” value in the data set with Velvetleaf (atrazine 140 g ai/ha), with Velvetleaf (atrazine 280 g ai/ha) and in the data set on Velvetleaf (atrazine 560 g ai/ha) were 53%, 63% and 96%, respectively. For the same compound, the Y with Common cocklebur (Atrazine alone 140 g ai/ha) amounted to 57%; in the data set with Common cocklebur (Atrazine alone 280 g ai/ha) it was 92%; in the data set with Common cocklebur (Atrazine alone 560 g ai/ha), 97%.
Take `N#Cc1cc(Br)c(O)c(Br)c1` [Bromoxynil, bromoxynil, reference compound]: in the data set on weeds; Wheat and Barley, the “weed control / crop safety in words” value was “alone controlled wild buckwheat, wild mustard, and common lambsquarters at all rates and was safe on both crops at all rates”. The Y is listed as 35% with common chickweed (bromoxynil alone 140 g ai/ha), 65% in the data set with common chickweed (bromoxynil alone 210 g ai/ha) and 38% with common chickweed (bromoxynil alone 280 g ai/ha).
Turning to `CC1(C)CON(Cc2ccccc2Cl)C1=O` [Clomazone, clomazone, reference compound], the Y came to 70% in the data set with Wild buckwheat (clomazone alone 60 g ai/ha); 80% in the data set with Wild buckwheat (clomazone alone 90 g ai/ha); 79% in the data set on Wild buckwheat (clomazone alone 120 g ai/ha); 40% in the data set on Cheat (clomazone alone 60 g ai/ha); 75% in the data set with Cheat (clomazone alone 90 g ai/ha); 97% with Cheat (clomazone alone 120 g ai/ha). Also, the “weed control in words” value is “controlled goosegrass at all rates and cheat at 120 g” in the data set on weeds [2]; “at 1120 g controlled hairy beggarticks, large crabgrass, and redroot pigweed” in [3].
Consider `O=C(Nc1ccc(F)cc1F)c1cccnc1Oc1cccc(C(F)(F)F)c1` [Diflufenican, diflufenican, reference compound], for which, in the data set on weeds [4], the “weed control in words” value is “controlled common lambsquarters at 100 g only”. Moreover, the Y with Common lambsquarters (diflufenican alone 50 g ai/ha) is 65%; in the data set with Common lambsquarters (diflufenican alone 75 g ai/ha) it was 73%; in the data set on Common lambsquarters (diflufenican alone 100 g ai/ha), 85%; in the data set with Blackgrass (diflufenican alone 50 g ai/ha), 33%; in the data set with Blackgrass (diflufenican alone 75 g ai/ha), 17%; with Blackgrass (diflufenican alone 100 g ai/ha), 27%. The Y is reported as 42% in the data set with Wild mustard (diflufenican alone 50 g ai/ha), 89% with Wild mustard (diflufenican alone 75 g ai/ha) and 100% with Wild mustard (diflufenican alone 100 g ai/ha).
On to `COCCN(C(=O)CCl)c1c(C)cccc1C` [Dimethachlor, dimethachlor], for which, in the data set with weeds [2], the “weed control in words” value was “controlled annual bluegrass, quackgrass, littleseed canarygrass, silky windgrass, yellow foxtail, and goosegrass”. The compound also displayed an injury to canola with weeds; Wheat and canola (at 100 g) of 18%. Also, the “weed control / crop safety in words” value in the data set on weeds; Wheat and canola (weed, crop, rate in the words) is “alone provided control of lambsquarters at 1000 g ai/ha”.
`CS(=O)(=O)c1cc(C(F)(F)F)ccc1C(=O)c1cnoc1C1CC1` [Isoxaflutole, isoxaflutole, reference compound]: the sugarcane injury with weeds; Sugarcane (CTC20) amounted to 12%. For the same compound, the Y in the data set with Ivyleaf morningglory (isoxaflutole alone 80 g ai/ha) was 69%; with Ivyleaf morningglory (isoxaflutole alone 100 g ai/ha), 73%; in the data set on Ivyleaf morningglory (isoxaflutole alone 120 g ai/ha) it was 81%. Further, in [3], the “weed control in words” value is “alone at 80 g or higher rates controlled hairy beggarticks, large crabgrass, and redroot pigweed”.
With `CCC(CC)Nc1c([N+](=O)[O-])cc(C)c(C)c1[N+](=O)[O-]` [Pendimethalin, pendimethalin], the “weed control / crop safety in words” value in [5] was “controlled corn poppy and field violet and was safe on barley”. Further, the figures for the “weed control in words” value in the data set with weeds [4] and in the data set with weeds [1] were “at 1200 g gave control of 6 out of 10 weeds” and “at 784 g gave control of 5 out of 10 weeds”, respectively.
